Assay [1] addresses T1, Human 5-HT4 receptor (5-HT4b) (Homo sapiens, UniProt Q13639).
T1 construct: expressed in transfected cells; membrane preparation
The experiment in a line: Test Example 3: Human 5-HT4 receptor binding assay, membranes of CHO-K1 cells stably expressing 5-HT4b receptors (Table 99). As to conditions: mean value of each group. In a few lines:
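Radioligand displacement: [3H]-GR113808 (0.1 nM) bound to CHO-K1 5-HT4b membranes for 30 min at 37 °C in Hepes buffer (50 mM, pH 7.4). Specific binding is total minus that with 30 μM serotonin; filter-bound radioactivity counted, IC50 derived from percent inhibition.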

The target in the next assay is T2, human 5-HT4b receptor (Homo sapiens, UniProt Q13639).
T2 construct: expressed in transfected cells; host or cells: CHO cells (G418 selection)
T2 sequence (Q13639 whole entry): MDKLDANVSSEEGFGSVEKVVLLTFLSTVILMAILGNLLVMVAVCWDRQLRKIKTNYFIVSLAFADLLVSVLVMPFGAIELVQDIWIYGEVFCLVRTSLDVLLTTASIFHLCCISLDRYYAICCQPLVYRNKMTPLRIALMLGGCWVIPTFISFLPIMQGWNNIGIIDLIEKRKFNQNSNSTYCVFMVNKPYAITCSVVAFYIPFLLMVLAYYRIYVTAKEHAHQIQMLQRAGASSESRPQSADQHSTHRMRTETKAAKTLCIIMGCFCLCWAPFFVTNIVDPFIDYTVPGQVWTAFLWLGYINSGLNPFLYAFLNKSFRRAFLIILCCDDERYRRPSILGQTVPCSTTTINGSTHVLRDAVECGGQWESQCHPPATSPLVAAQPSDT
The experiment in a line: Test Example 4: Serotonin 4 (5-HT4) receptor agonist activity assay, cAMP HTRF in CHO cells (Table 100). The assay is classed as cell-based. As to conditions: mean value; for Emax: CHO, 0.25 h, intrinsic activity, maximal activity of 5-HT defined as 100%, read-out: IA (%); for EC50: concentration showing 50% of IA. In a few lines: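 Read-out is HTRF cAMP (time-resolved fluorescence 620/665 nm after 1 h RT with cAMP-cryptate and cAMP-d2), from recombinant CHO cells bearing human 5-HT4b treated with compound 15 min at 31° C. in Hanks/HEPES buffer pH 7.4. IA (%) scaled to peak 5-HT effect over 10^−11–10^−7 M; EC50 is concentration giving half that IA.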
Background: Time-resolved FRET reads energy transfer from a long-lived donor to a nearby acceptor.

The structures appear in SMILES notation. Where only a bound is given, the exact number is not on record here.

T1 sequence (Q13639 whole entry): as above

The IC50 is the point on the concentration scale where inhibition reaches its midpoint. Low values mean greater potency in that assay, high ones weaker potency in that assay. What is called EC50 is the midpoint of the concentration-response curve. In assay [1], `CC(C)c1nn(-c2noc(C[C@H]3CCN(C[C@H]4CCCN4S(C)(=O)=O)C3)n2)c2c(F)cccc12` [Example 500, 7-fluoro-1-(5-{[(3R)-1-{[(2R)-1-(methylsulfonyl)pyrrolidin-2-yl]methyl}pyrrolidin-3-yl]methyl}-1,2,4-oxadiazol-3-yl)-3-(propan-2-yl)-1H-indazole] came in with an IC50 of less than 20 nM. At human 5-HT4b receptor, the Emax is 90% and a half-maximal effect (EC50) was put at 14.4 nM.

Consider `CCCc1nn(-c2noc(C3CCN(C4CCN(C(=O)CO)CC4)CC3)n2)c2c(F)cccc12` [Example 524, 1-{4-[3-(7-fluoro-3-propyl-1H-indazol-1-yl)-1,2,4-oxadiazol-5-yl]-1,4′-bipiperidin-1′-yl}-2-hydroxyethanone], for which the IC50 in assay [1] was less than 20 nM. On human 5-HT4b receptor, the Emax was 84% and the EC50 was 4.3 nM.

`CC(C)c1nn(-c2noc(C[C@H]3CCN(CC4CN(C(=O)CO)C4)C3)n2)c2c(F)cccc12` [Example 542, 1-(3-{[(3R)-3-({3-[7-fluoro-3-(propan-2-yl)-1H-indazol-1-yl]-1,2,4-oxadiazol-5-yl}methyl)pyrrolidin-1-yl]methyl}azetidin-1-yl)-2-hydroxyethanone]: in assay [1], the IC50 is less than 20 nM. In addition, on human 5-HT4b receptor, the Emax came to 90% and the midpoint of the response, the EC50, lay at 3.3 nM.

`CC(C)c1nn(-c2noc(C3CCN([C@H]4[C@@H]5CCC[C@H]4CN(C(=O)CO)C5)CC3)n2)c2c(F)cccc12` [Example 536, 1-[(9-syn)-9-(4-{3-[7-fluoro-3-(propan-2-yl)-1H-indazol-1-yl]-1,2,4-oxadiazol-5-yl}piperidin-1-yl)-3-azabicyclo[3.3.1]non-3-yl]-2-hydroxyethanone] registered an IC50 in assay [1] of less than 20 nM. In addition, on human 5-HT4b receptor, the Emax worked out at 100% and the EC50 came to 3.7 nM.

`CC(C)c1nn(-c2noc(C[C@@H]3CCN(C4CCN(S(C)(=O)=O)CC4)C3)n2)c2c(F)cccc12` [Example 508, 7-fluoro-1-[5-({(3S)-1-[1-(methylsulfonyl)piperidin-4-yl]pyrrolidin-3-yl}methyl)-1,2,4-oxadiazol-3-yl]-3-(propan-2-yl)-1H-indazole]: in assay [1], the IC50 was less than 20 nM. At human 5-HT4b receptor, the Emax was 54% and the EC50 turned out to be 3.7 nM.

With `CC(C)c1nn(-c2noc(C[C@H]3CCN(C4CCN(C(=O)CO)CC4)C3)n2)c2c(F)cccc12` [Example 539, 1-{4-[(3R)-3-({3-[7-fluoro-3-(propan-2-yl)-1H-indazol-1-yl]-1,2,4-oxadiazol-5-yl}methyl)pyrrolidin-1-yl]piperidin-1-yl}-2-hydroxyethanone], in assay [1], the IC50 is less than 20 nM. Also, on human 5-HT4b receptor, the Emax was 75% and a half-maximal effect (EC50) was put at 2.6 nM.

On to `CC(C)c1nn(-c2noc(C[C@H]3CCN(C4CCN(S(C)(=O)=O)CC4)C3)n2)c2c(F)cccc12` [Example 496, 7-fluoro-1-[5-({(3R)-1-[1-(methylsulfonyl)piperidin-4-yl]pyrrolidin-3-yl}methyl)-1,2,4-oxadiazol-3-yl]-3-(propan-2-yl)-1H-indazole], for which, in assay [1], the half-maximal inhibitory concentration (IC50) was less than 20 nM. Besides, on human 5-HT4b receptor, the Emax came out at 70% and the EC50 turned out to be 2.2 nM.

In the case of `CC(C)c1nn(-c2noc(C[C@@H]3CCN(CC4CN(C(=O)CO)C4)C3)n2)c2c(F)cccc12` [Example 548, 1-(3-{[(3S)-3-({3-[7-fluoro-3-(propan-2-yl)-1H-indazol-1-yl]-1,2,4-oxadiazol-5-yl}methyl)pyrrolidin-1-yl]methyl}azetidin-1-yl)-2-hydroxyethanone], the IC50 in assay [1] is less than 20 nM. At human 5-HT4b receptor, the Emax amounted to 73% and the EC50 was 6.4 nM.
